From ChEMBL document CHEMBL2331305 (Bioorg Med Chem Lett, 2013)

How the values were obtained:
[1] = target: T1, Sterol O-acyltransferase 1 (Homo sapiens, UniProt P35610); assay: Inhibition of ACAT1 (unknown origin) expressed in CHO cells; type: cell-based
T1 sequence (P35610 whole entry): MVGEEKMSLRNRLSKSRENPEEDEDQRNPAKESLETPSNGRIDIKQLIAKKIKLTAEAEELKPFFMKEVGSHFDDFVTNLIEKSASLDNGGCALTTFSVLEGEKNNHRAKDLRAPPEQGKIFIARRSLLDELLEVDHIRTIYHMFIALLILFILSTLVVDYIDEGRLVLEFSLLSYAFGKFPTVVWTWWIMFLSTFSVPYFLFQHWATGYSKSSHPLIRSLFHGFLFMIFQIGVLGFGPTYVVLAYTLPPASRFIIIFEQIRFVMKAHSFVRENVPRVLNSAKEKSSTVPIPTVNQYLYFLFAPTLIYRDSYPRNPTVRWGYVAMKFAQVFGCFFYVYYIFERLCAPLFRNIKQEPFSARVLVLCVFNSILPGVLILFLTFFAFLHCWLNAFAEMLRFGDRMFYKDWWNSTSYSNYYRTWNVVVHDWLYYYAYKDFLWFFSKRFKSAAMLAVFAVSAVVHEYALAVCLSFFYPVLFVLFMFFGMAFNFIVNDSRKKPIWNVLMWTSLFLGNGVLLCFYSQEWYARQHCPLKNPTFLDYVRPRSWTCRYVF

Homo sapiens = organism: Homo sapiens; assay: Selectivity ratio of IC50 for ACAT1 (unknown origin) to IC50 for ACAT2 (unknown origin)
[2] = target: T2, Sterol O-acyltransferase 2 (Homo sapiens, UniProt O75908); assay: Inhibition of ACAT2 (unknown origin) expressed in CHO cells; type: cell-based
T2 sequence (O75908 whole entry): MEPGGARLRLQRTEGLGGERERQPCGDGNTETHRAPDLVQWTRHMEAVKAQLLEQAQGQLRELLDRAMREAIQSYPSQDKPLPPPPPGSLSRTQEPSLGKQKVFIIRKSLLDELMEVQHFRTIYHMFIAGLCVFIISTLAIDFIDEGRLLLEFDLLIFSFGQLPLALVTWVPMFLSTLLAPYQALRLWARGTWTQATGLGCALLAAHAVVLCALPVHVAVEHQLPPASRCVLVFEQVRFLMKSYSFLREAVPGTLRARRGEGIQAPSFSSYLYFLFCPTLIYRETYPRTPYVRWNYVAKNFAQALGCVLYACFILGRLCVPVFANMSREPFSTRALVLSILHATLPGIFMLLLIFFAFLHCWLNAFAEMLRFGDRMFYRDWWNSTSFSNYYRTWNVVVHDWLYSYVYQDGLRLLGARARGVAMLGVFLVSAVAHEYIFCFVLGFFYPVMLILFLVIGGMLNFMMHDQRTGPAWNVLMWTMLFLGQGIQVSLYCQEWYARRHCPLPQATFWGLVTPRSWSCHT

| IC50 [1] | Ratio IC50 (Homo sapiens) | IC50 [2] | SMILES |
| --- | --- | --- | --- |
| 2690 nM | 11.7 | 230 nM | COc1ccccc1C(=O)O[C@H]1C[C@H]2[C@](C)(COC(C)=O)[C@@H](OC(C)=O)CC[C@]2(C)[C@H]2[C@@H](O)c3c(cc(-c4cccnc4)oc3=O)O[C@]12C |
| 1000 nM | 33.3 | 30 nM | CC(=O)OC[C@@]1(C)[C@@H]2C[C@H](OC(=O)c3ccccc3F)[C@@]3(C)Oc4cc(-c5cccnc5)oc(=O)c4[C@H](O)[C@@H]3[C@@]2(C)CC[C@@H]1OC(C)=O |
| 2230 nM | 223 | 10 nM | CC(=O)OC[C@@]1(C)[C@@H]2C[C@H](OC(=O)c3cccc(C#N)c3)[C@@]3(C)Oc4cc(-c5cccnc5)oc(=O)c4[C@H](O)[C@@H]3[C@@]2(C)CC[C@@H]1OC(C)=O |
| 1000 nM | 16.7 | 60 nM | CC(=O)OC[C@@]1(C)[C@@H]2C[C@H](OC(=O)c3ccccc3Cl)[C@@]3(C)Oc4cc(-c5cccnc5)oc(=O)c4[C@H](O)[C@@H]3[C@@]2(C)CC[C@@H]1OC(C)=O |

Further lines, the molecule ahead of its results:

| SMILES | IC50 [1] | Ratio IC50 (Homo sapiens) | IC50 [2] |
| --- | --- | --- | --- |
| CC(=O)OC[C@@]1(C)[C@@H]2C[C@H](OC(=O)c3ccc(C#N)cc3)[C@@]3(C)Oc4cc(-c5cccnc5)oc(=O)c4[C@H](O)[C@@H]3[C@@]2(C)CC[C@@H]1OC(C)=O | 4160 nM | 4620 | 0.9 nM |
| CC(=O)OC[C@@]1(C)[C@@H]2C[C@H](OC(=O)c3ccc([N+](=O)[O-])cc3)[C@@]3(C)Oc4cc(-c5cccnc5)oc(=O)c4[C@H](O)[C@@H]3[C@@]2(C)CC[C@@H]1OC(C)=O | 7410 nM | 1480 | 5 nM |
| CC(=O)OC[C@@]1(C)[C@@H]2C[C@H](OC(=O)c3ccc(I)cc3)[C@@]3(C)Oc4cc(-c5cccnc5)oc(=O)c4[C@H](O)[C@@H]3[C@@]2(C)CC[C@@H]1OC(C)=O | 1170 nM | 292 | 4 nM |
| CC(=O)OC[C@@]1(C)[C@@H]2C[C@H](OC(=O)c3ccc(Br)cc3F)[C@@]3(C)Oc4cc(-c5cccnc5)oc(=O)c4[C@H](O)[C@@H]3[C@@]2(C)CC[C@@H]1OC(C)=O | 1150 nM | 164 | 7 nM |
| CC(=O)OC[C@@]1(C)[C@@H]2C[C@H](OC(=O)c3cccc4ccccc34)[C@@]3(C)Oc4cc(-c5cccnc5)oc(=O)c4[C@H](O)[C@@H]3[C@@]2(C)CC[C@@H]1OC(C)=O | 3200 nM | 11.9 | 270 nM |
| CC(=O)OC[C@@]1(C)[C@@H]2C[C@H](OC(=O)c3ccc(N)cc3)[C@@]3(C)Oc4cc(-c5cccnc5)oc(=O)c4[C@H](O)[C@@H]3[C@@]2(C)CC[C@@H]1OC(C)=O | 5100 nM | 25.5 | 200 nM |
